Patent US12364702B2, “Highly active sting protein agonist compound” (ADLAI NORTYE BIOPHARMA CO., LTD., priority 2018, dated 2025)
Where two headings read alike, the source gives them in different places.

Experiments:
Type in all cases: cell-based
STING HAQ variant = target: T1, STING HAQ variant (Homo sapiens, UniProt Q86WV6, G230A/R293Q/R71H); experiment: SEAP reporter assay in HEK-Blue ISG KO-STING cells transfected with STING HAQ variant (Method 1); details: 24 h, SEAP signal vs 0.5% DMSO
T1 construct: host or cells: HEK-Blue ISG KO-STING cells (Invivogen, hkb-kostg)
T1 sequence (Q86WV6 whole entry R71H/G230A/R293Q): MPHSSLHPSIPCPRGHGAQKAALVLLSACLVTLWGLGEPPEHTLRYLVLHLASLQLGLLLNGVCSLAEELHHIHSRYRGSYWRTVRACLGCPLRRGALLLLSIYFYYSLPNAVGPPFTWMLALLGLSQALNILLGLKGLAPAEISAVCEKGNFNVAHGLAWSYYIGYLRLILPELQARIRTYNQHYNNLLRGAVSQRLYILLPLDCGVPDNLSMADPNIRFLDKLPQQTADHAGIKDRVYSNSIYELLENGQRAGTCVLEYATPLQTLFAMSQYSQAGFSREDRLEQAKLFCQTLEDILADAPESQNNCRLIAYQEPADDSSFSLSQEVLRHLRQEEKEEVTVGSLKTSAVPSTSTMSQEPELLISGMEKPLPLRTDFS
Description: (§1) Activation of STING can be determined using a SEAP reporter assay in HEK-Blue™ ISG KO-STING cells (Invivogen, cat #hkb-kostg) transfected with plasmids expressing STING variants (WT & HAQ) (referred to WO2017/175147A1). STING variants (WT & HAQ) vector were constructed based on STING-232H vector (Origene, RC208418). GFP vector (VT2069) was bought from Youbio. The detailed protocol as follows: HEK-Blue™ ISG KO-STING cells were harvest and seeding into 96 well plate, the final cell number was 0.8×10^5 cells/well. Transfections were prepared using Lipofectamine 2000 (Invitrogen, Cat #11668-027) following the manufacturer's instructions (Lipo2000/DNA=1/10), 20 ul of transfection suspension containing 1 ng STING vector was added to cell culture plate and incubated at 37° C., 5% CO2 for 24 hours. After 24 hours' incubation, compounds were added at proper concentration, and the final DMSO concentration was 0.5%. After 24 h incubation, the supernatant was collected to detect SEAP signal using Great EscAPe SEAP chemiluminescence KIT (Clontech, cat #631738) and cells were collected to detect cell viability using CellTiter-Glo Luminescent Cell Viability Assay (Promega, cat #G7573) following the manufacturer's instructions. The data were described by the ratio of the stimulating signal of compounds to 0.5% DMSO.

STING = STING (Homo sapiens, UniProt Q86WV6); experiment: IFN-β secretion from THP1 by STING activation (hIFNβ ELISA)
Sequence of STING (Q86WV6 whole entry): as the sequence (Q86WV6 whole entry R71H/G230A/R293Q) above, with H71R, A230G, Q293R counted along it
Method: In this assay, activation of STING by compounds was evaluated by detecting their ability to stimulate the secretion of IFN-β (interferon-beta) from THP1. THP1 was purchased from National Collection of Authenticated Cell Cultures (Cat #TCHu 57). The top dose of compounds was setted according to their solubility. First, Compounds were 3 times diluted with medium, 8-dose points in total. The final DMSO concentration was 0.2%. THP1 during the logarithmic phase was resuspended to 2×10^6 cells/ml in assay medium. The THP1-cell suspension was dispensed into a 96-well U bottom plate containing 50 ul of compound diluted in medium. After 24 h incubation at 37° C., 5% CO2, the supernatant was collected. The concentration of IFN-β in the supernatant was measured using a human IFNβ ELISA KIT (R&D, DY814-05). The data was fitted with GraphPad Prism or XLfit to calculate EC50 values.

STING WT variant = target: T2, STING WT variant (Homo sapiens, UniProt Q86WV6); experiment: SEAP reporter assay in HEK-Blue ISG KO-STING cells transfected with STING WT variant (Method 1); details: 24 h, SEAP signal vs 0.5% DMSO
T2 construct: host or cells: HEK-Blue ISG KO-STING cells (Invivogen, hkb-kostg)
Description: as §1

[1] = THP1 cells; 24 h incubation; IFN-β in supernatant; top dose set according to solubility
[2] = 1 ng STING vector, compound 5 uM
[3] = 1 ng STING vector, compound 2.5 uM
[4] = THP1 cells; 24 h incubation; IFN-β in supernatant; top dose set according to solubility; read-out: hIFNβ ELISA (EC50)

SMILES | hIFNβ ELISA (EC50, μM) (STING; [1]) | Fold change related to DMSO control HAQ (STING HAQ variant; [2]) | Fold change related to DMSO control WT (STING WT variant; [3]) | EC50 (STING; [4]) [nM] | other results
CCn1nc(C)cc1C(=O)Nc1nc2cc(C(N)=O)cc(OC)c2n1CCC[C@@H]1COc2cc(C(N)=O)cc3nc(NC(=O)c4cc(C)nn4CC)n1c23 [Example 4, (R)-3-(3-(5-Carbamoyl-2-(1-ethyl-3-methyl-1H-pyrazole-5-carboxamido)-7-methoxy-1H-benzo[d]imidazol-1-yl)propyl)-2-(1-ethyl-3-methyl-1H-pyrazole-5-carboxamido)-3,4-dihydro-5-oxa-1,2a-diazaacenaphthylene-7-carboxamide] | inactive |  |  |  | Fold change related to DMSO control HAQ (STING HAQ variant; compound 26.8 uM): 10.21; Fold change related to DMSO control WT (STING WT variant; compound 26.8 uM): 2.22
CCn1nc(C)cc1C(=O)Nc1nc2cc(C(N)=O)cc(OCC[C@@H](O)CO)c2n1CCC[C@H]1COc2cc(C(N)=O)cc3nc(NC(=O)c4cc(C)nn4CC)n1c23 [Example 38, (S)-3-(3-(5-carbamoyl-7-((R)-3,4-dihydroxybutoxy)-2-(1-ethyl-3-methyl-1H-pyrazole-5-carboxamido)-1H-benzo[d]imidazol-1-yl)propyl)-2-(1-ethyl-3-methyl-1H-pyrazole-5-carboxamido)-3,4-dihydro-5-oxa-1,2a-diazaacenaphthylene-7-carboxamide] | inactive | 18.05 | 2.15 |  | 
CCn1nc(C)cc1C(=O)Nc1nc2cc(C(N)=O)cc(OCCCCNC)c2n1CCC[C@H]1COc2cc(C(N)=O)cc3nc(NC(=O)c4cc(C)nn4CC)n1c23 [Example 23, (S)-3-(3-(5-carbamoyl-2-(1-ethyl-3-methyl-1H-pyrazole-5-carboxamido)-7-(4-(methylamino)butoxy)-1H-benzo[d]imidazol-1-yl)propyl)-2-(1-ethyl-3-methyl-1H-pyrazole-5-carboxamido)-3,4-dihydro-5-oxa-1,2a-diazaacenaphthylene-7-carboxamide] |  | 38.85 | 2.82 | 1100 | 
CCn1nc(C)cc1C(=O)Nc1nc2cc(C(N)=O)cc(OCCCOC)c2n1CCCC[C@H]1COc2cc(C(N)=O)cc3nc(NC(=O)c4cc(C)nn4CC)n1c23 [Example 8, (S)-3-(4-(5-carbamoyl-2-(1-ethyl-3-methyl-1H-pyrazole-5-carboxamido)-7-(3-methoxypropoxy)-1H-benzo[d]imidazol-1-yl)butyl)-2-(1-ethyl-3-methyl-1H-pyrazole-5-carboxamido)-3,4-dihydro-5-oxa-1,2a-diazaacenaphthylene-7-carboxamide] | inactive |  |  |  | Fold change related to DMSO control HAQ (STING HAQ variant; compound 4.7 uM): 8.09; Fold change related to DMSO control WT (STING WT variant; compound 4.7 uM): 2.08
CCn1nc(C)cc1C(=O)Nc1nc2cc(C(N)=O)cc(OCCCOC)c2n1CCC[C@@H]1COc2cc(C(N)=O)cc3nc(NC(=O)c4cc(C)nn4CC)n1c23 [Example 2, (R)-3-(3-(5-Carbamoyl-2-(1-ethyl-3-methyl-1H-pyrazole-5-carboxamido)-7-(3-methoxypropoxy)-1H-benzo[d]imidazol-1-yl)propyl)-2-(1-ethyl-3-methyl-1H-pyrazole-5-carboxamido)-3,4-dihydro-5-oxa-1,2a-diazaacenaphthylene-7-carboxamide] | inactive |  |  |  | Fold change related to DMSO control HAQ (STING HAQ variant; compound 15.65 uM): 2.52; Fold change related to DMSO control WT (STING WT variant; compound 15.65 uM): 1.99
CCn1nc(C)cc1C(=O)Nc1nc2cc(C(N)=O)cc(OCCOC)c2n1CCC[C@H]1COc2cc(C(N)=O)cc3nc(NC(=O)c4cc(C)nn4CC)n1c23 [Example 19, (S)-3-(3-(5-carbamoyl-2-(1-ethyl-3-methyl-1H-pyrazole-5-carboxamido)-7-(2-methoxyethoxy)-1H-benzo[d]imidazol-1-yl)propyl)-2-(1-ethyl-3-methyl-1H-pyrazole-5-carboxamido)-3,4-dihydro-5-oxa-1,2a-diazaacenaphthylene-7-carboxamide] |  | 60.17 | 2.33 | 6200 | 
CCn1nc(C)cc1C(=O)Nc1nc2cc(C(N)=O)cc(OCCCN(C)C(C)=O)c2n1CCC[C@H]1COc2cc(C(N)=O)cc3nc(NC(=O)c4cc(C)nn4CC)n1c23 [Example 27, (S)-3-(3-(5-carbamoyl-2-(1-ethyl-3-methyl-1H-pyrazole-5-carboxamido)-7-(3-(N-methylacetamido)propoxy)-1H-benzo[d]imidazol-1-yl)propyl)-2-(1-ethyl-3-methyl-1H-pyrazole-5-carboxamido)-3,4-dihydro-5-oxa-1,2a-diazaacenaphthylene-7-carboxamide] |  | 45.86 | 2.22 | 3900 | 
CCn1nc(C)cc1C(=O)Nc1nc2cc(C(N)=O)cc(OCCCN(C)C)c2n1CCC[C@H]1COc2cc(C(N)=O)cc3nc(NC(=O)c4cc(C)nn4CC)n1c23 [Example 18, (S)-3-(3-(5-carbamoyl-7-(3-(dimethylamino)propoxy)-2-(1-ethyl-3-methyl-1H-pyrazole-5-carboxamido)-1H-benzo[d]imidazol-1-yl)propyl)-2-(1-ethyl-3-methyl-1H-pyrazole-5-carboxamido)-3,4-dihydro-5-oxa-1,2a-diazaacenaphthylene-7-carboxamide] |  | 40.66 | 2.64 | 18200 | 
CCn1nc(C)cc1C(=O)Nc1nc2cc(C(N)=O)cc(OCCCNC(=O)CN3CCOCC3)c2n1CCC[C@H]1COc2cc(C(N)=O)cc3nc(NC(=O)c4cc(C)nn4CC)n1c23 [Example 21, (S)-3-(3-(5-carbamoyl-2-(1-ethyl-3-methyl-1H-pyrazole-5-carboxamido)-7-(3-(2-morpholinoacetamido)propoxy)-1H-benzo[d]imidazol-1-yl)propyl)-2-(1-ethyl-3-methyl-1H-pyrazole-5-carboxamido)-3,4-dihydro-5-oxa-1,2a-diazaacenaphthylene-7-carboxamide] |  | 40.44 | 2.38 | 1400 | 
CCn1nc(C)cc1C(=O)Nc1nc2cc(C(N)=O)cc(OCCCNC)c2n1CCC[C@H]1COc2cc(C(N)=O)cc3nc(NC(=O)c4cc(C)nn4CC)n1c23.Cl [Example 17, (S)-3-(3-(5-carbamoyl-2-(1-ethyl-3-methyl-1H-pyrazole-5-carboxamido)-7-(3-(methylamino)propoxy)-1H-benzo[d]imidazol-1-yl)propyl)-2-(1-ethyl-3-methyl-1H-pyrazole-5-carboxamido)-3,4-dihydro-5-oxa-1,2a-diazaacenaphthylene-7-carboxamide Hydrochloride] |  | 33.85 | 2.35 |  | EC50 (STING; read-out: hIFNβ ELISA (EC50); THP1 cells; 24 h incubation; IFN-β in supernatant; top dose set according to solubility): 9800 nM
CCn1nc(C)cc1C(=O)Nc1nc2cc(C(N)=O)cc(OCCOCCOC)c2n1CCC[C@H]1COc2cc(C(N)=O)cc3nc(NC(=O)c4cc(C)nn4CC)n1c23 [Example 25, (S)-3-(3-(5-carbamoyl-2-(1-ethyl-3-methyl-1H-pyrazole-5-carboxamido)-7-(2-(2-methoxyethoxy)ethoxy)-1H-benzo[d]imidazol-1-yl)propyl)-2-(1-ethyl-3-methyl-1H-pyrazole-5-carboxamido)-3,4-dihydro-5-oxa-1,2a-diazaacenaphthylene-7-carboxamide] |  | 46.51 | 1.95 | 700 | 
CCn1nc(C)cc1C(=O)Nc1nc2cc(C(N)=O)cc(OCCCN3CCOCC3)c2n1CCC[C@H]1COc2cc(C(N)=O)cc3nc(NC(=O)c4cc(C)nn4CC)n1c23 [Example 24, (S)-3-(3-(5-carbamoyl-2-(1-ethyl-3-methyl-1H-pyrazole-5-carboxamido)-7-(3-morpholinopropoxy)-1H-benzo[d]imidazol-1-yl)propyl)-2-(1-ethyl-3-methyl-1H-pyrazole-5-carboxamido)-3,4-dihydro-5-oxa-1,2a-diazaacenaphthylene-7-carboxamide] |  | 56.42 | 2.70 | 1100 | 
